Test results: US12600732B2, “Bifunctional compounds for degrading BTK via ubiquitin proteosome pathway” (NURIX THERAPEUTICS, INC., priority 2019, dated 2026)
pEC50: −log10 of the molar value. Values joined by “and” are separate entries in the source; they are usually repeats but may differ in a detail not shown here. Equal entries are not always repeated.

Experiments:
[1] = tested on: primary human T cells; experiment: T cell activation assay, IL-2 secretion (ELISA); type: cell-based; details: for IL-2 secretion compared to baseline (anti-CD3/anti-CD28 stimulation alone): primary human T cells
Procedure: (§1) This example evaluates whether CTMs with IMiD activity affect T cell activation. […] These assays were performed to assess whether BTK CTMs with and without IMiD activity affected activation of primary human T cells after stimulation of the T cell receptor with anti-CD3/ati-CD28 stimulation. T cell activation was measured by IL-2 secretion (ELISA assay) and upregulation of activation markers CD25 and CD69 on the surface of T cells (flow cytometry). Data are presented as the fold-change of response relative to baseline (stimulation with anti-CD3/anti-CD28 stimulation in the absence of compound).

[2] = target: T1, BTK (Mus musculus, UniProt P35991); experiment: In vivo degradation of BTK in mouse PD experiments with oral dosing
T1 construct: from tissue; host or cells: mouse blood B cells / splenocytes (CD-1 or BALB/c)
Procedure: A method of determining the pharmacodynamic profile of BTK degraders was performed by dosing either CD-1 or BALB/c mice with CTM. The CTM was prepared in a suitable formulation and was administered via oral gavage (PO) at a suitable dose level and frequency as informed by prior pharmacokinetic and tolerability studies. Following administration of CTM, BTK levels in blood or splenocytes are measured using flow cytometry or HTRF. For assessment of BTK levels via flow cytometry, either whole blood or splenocytes were first treated with ACK RBC lysis buffer to facilitate lysing of red blood cells. Remaining cells were then stained with fluorophore-conjugated antibodies against CD45, TCR beta and CD45R (B220). Cell pellets were washed with 1×PBS, fixed, and permeabilized for twenty-four hours with Foxp3/Transcription Factor Fixation/Permeabilization Kit. Cells were then stained intracellularly with unconjugated BTK antibody and detected with a fluorophore-conjugated secondary antibody. Stained cells were run on an Attune N×T Acoustic Focusing Flow Cytometer (Thermo-Fisher A29004), and data was analyzed using FlowJo (v10.5.3) and GraphPad Prism (v7.00) software. Lymphocytes were gated for B cells defined as CD45+ TCR beta−B220+ and T cells as CD45+ TCR beta+B220−. The BTK geometric mean fluorescence intensity (MFI) was calculated for B and T cells. Percent BTK degradation for each compound-treated sample was calculated using the equation described below: % Degradation=100*(Treated sample B cell BTK MFI-treated sample T cell BTK MFI)/Vehicle B cell BTK MFI-Vehicle T cell BTK MFI)
This example evaluates in vivo activity of BTK CTMs via a direct mouse PD measurement following oral dosing
Screens were completed at 90 mg/kg for six hours, and then changed to lower doses/longer time points after seeing strong BTK degradation activity with an initial set of compounds. This assay was useful in selecting compounds for in vivo efficacy experiments.

[3] = tested on: primary human T cells; experiment: T cell activation assay, CD25 and CD69 staining (flow cytometry); type: cell-based; details: for CD25 Staining Anti-CD3/Anti-CD28 Stimulation / CD69 Staining Anti-CD3/Anti-CD28 Stimulation: fold-change of response relative to baseline; for expression of CD25 and CD69 compared to baseline (anti-CD3/anti-CD28 stimulation alone): primary human T cells
Procedure: as §1

[4] = tested on: TMD8 cells; experiment: Cell viability assay (CellTiter-Glo), TMD8 cells; details: for pEC50: Homo sapiens, TMD8, 72 h; for EMAX (% viable cells): TMD8 cells, treatment time 72 h
[5] = tested on: TMD8 C481S cells; experiment: Cell viability assay (CellTiter-Glo), TMD8 C481S cells; details: for pEC50: Homo sapiens, TMD8, 72 h; for EMAX (% viable cells): TMD8 C481S cells, treatment time 72 h
Procedure: Cell viability was determined using CellTiter-Glo 2.0 Luminescent Cell Viability Assay (Promega, G9242), which quantitates the amount of ATP present as a proxy for the number of viable cells in culture. Cells were plated with densities between 2000-4000 cells per well in 96-well plates. […] CellTiter-Glo reagent was added to cells at a dilution of 1:20, and the plate was incubated ten minutes at room temperature prior to reading the luminescence signal using an EnVision plate reader. Controls included cells treated with DMSO and wells that contained no cells, only media. Background luminescence signal was determined by control wells containing no cells, only media, and was then subtracted from all sample wells. Luminescence values were then normalized to DMSO-treated wells and reported at proportion viable cells.

[6] = PK data for BTK CTMs (in vivo plasma concentrations); details: Mouse Balb/c
Description: The present example evaluates in vivo plasma concentrations of BTK CTMs to develop PK-PD-efficacy relationship and predict human exposure.

[7] = 1.4 nM, fold-change of response relative to baseline
[8] = 37 nM, fold-change of response relative to baseline
[9] = 333 nM, fold-change of response relative to baseline (stimulation without compound)
[10] = oral dose 3 mg/kg, 6 h, blood, flow cytometry

T1 sequence (P35991 whole entry): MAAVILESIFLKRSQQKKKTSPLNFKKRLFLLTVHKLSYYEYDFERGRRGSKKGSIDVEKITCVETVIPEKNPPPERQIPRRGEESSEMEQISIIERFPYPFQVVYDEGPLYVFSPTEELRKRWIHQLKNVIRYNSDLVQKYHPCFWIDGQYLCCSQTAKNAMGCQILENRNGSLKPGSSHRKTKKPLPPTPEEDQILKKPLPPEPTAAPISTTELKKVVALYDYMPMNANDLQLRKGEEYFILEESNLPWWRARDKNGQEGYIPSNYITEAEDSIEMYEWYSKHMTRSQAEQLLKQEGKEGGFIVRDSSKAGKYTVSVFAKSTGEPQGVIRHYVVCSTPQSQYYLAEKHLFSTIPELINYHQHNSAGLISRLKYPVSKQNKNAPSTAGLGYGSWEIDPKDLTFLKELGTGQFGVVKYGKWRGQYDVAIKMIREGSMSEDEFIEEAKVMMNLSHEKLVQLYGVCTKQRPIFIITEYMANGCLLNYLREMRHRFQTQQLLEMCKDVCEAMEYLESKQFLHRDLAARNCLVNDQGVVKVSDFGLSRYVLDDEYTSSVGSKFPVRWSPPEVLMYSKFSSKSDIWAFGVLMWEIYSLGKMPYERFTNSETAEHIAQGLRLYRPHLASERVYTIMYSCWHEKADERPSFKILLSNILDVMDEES

SMILES | IL-2 Secretion Anti-CD3/Anti-CD28 Stimulation [1, 7] | IL-2 Secretion Anti-CD3/Anti-CD28 Stimulation [1, 8] | IL-2 Secretion Anti-CD3/Anti-CD28 Stimulation [1, 9] | CD25 Staining Anti-CD3/Anti-CD28 Stimulation ([3]; 1.4 nM) | CD69 Staining Anti-CD3/Anti-CD28 Stimulation ([3]; 1.4 nM) | CD25 Staining Anti-CD3/Anti-CD28 Stimulation ([3]; 37 nM) | CD69 Staining Anti-CD3/Anti-CD28 Stimulation ([3]; 37 nM) | CD25 Staining Anti-CD3/Anti-CD28 Stimulation ([3]; 333 nM) | CD69 Staining Anti-CD3/Anti-CD28 Stimulation ([3]; 333 nM) | pEC50 [4] | EMAX (% viable cells) [4] [%] | pEC50 [5] | EMAX (% viable cells) [5] [%] | other results
CN1CCN([C@@H]2CCCN(c3cnc(C(N)=O)c(Nc4ccc(N5CC6(C5)CN(c5ccc7c(c5)C(=O)N(C5CCC(=O)NC5=O)C7=O)C6)cc4)n3)C2)C1=O (stereo partly drawn) [Compound 34, 3-((4-(6-(2-(2,6-dioxopiperidin-3-yl)-1,3-dioxoisoindolin-5-yl)-2,6-diazaspiro[3.3]heptan-2-yl)phenyl)amino)-5-((R)-3-(3-methyl-2-oxoimidazolidin-1-yl)piperidin-1-yl)pyrazine-2-carboxamide] | 1.48 | 1.66 | 1.58 | 1.21 | 1.14 | 1.31 | 1.21 | 1.25 | 1.23 |  |  |  |  | % BTK Remaining ([2]; oral dose 1 mg/kg, 6 h, splenocytes, HTRF): 75%
CN1CCN([C@@H]2CCCN(c3cnc(C(N)=O)c(Nc4ccc(N5CCN(C[C@@H]6[C@H]7CN(c8ccc9c(c8)C(=O)N(C8CCC(=O)NC8=O)C9=O)C[C@@H]67)CC5)cc4)n3)C2)C1=O (stereo partly drawn) [Compound 38] | 1.21 | 1.58 | 1.81 | 1.05 | 1.02 | 1.02 | 0.99 | 0.86 | 0.90 |  |  |  |  | % BTK Remaining ([2]; oral dose 1 mg/kg, 6 h, splenocytes, HTRF, 1 mg/kg): 68% and 76%; % BTK Remaining ([2]; oral dose 3 mg/kg, 6 h, splenocytes, HTRF): 38%
CN1CCN([C@@H]2CCCN(c3cnc(C(N)=O)c(Nc4ccc(C5CCN(CC6CCN(c7ccc8c(c7)C(=O)N(C7CCC(=O)NC7=O)C8=O)CC6)CC5)cc4)n3)C2)C1=O (stereo partly drawn) [Compound 51] | 1.19 | 1.99 | 2.12 | 0.86 | 0.91 | 0.62 | 0.62 | 0.38 | 0.39 | 9.49 | 20 | 8.71 | 49 | % BTK Remaining ([2]; oral dose 90 mg/kg, 6 h, splenocytes, HTRF): 2%
CN1CCN([C@@H]2CCCN(c3cnc(C(N)=O)c(Nc4ccc(OCCCNc5ccc6c(c5)C(=O)N(C5CCC(=O)NC5=O)C6=O)cc4)n3)C2)C1=O (stereo partly drawn) [Compound 64] | 1.28 | 1.80 | 1.48 | 1.17 | 1.14 | 1.04 | 1.14 | 0.34 | 0.64 |  |  |  |  | 
CN1CCN([C@@H]2CCCN(c3cnc(C(N)=O)c(Nc4ccc(C5CCN(C6CN(Cc7ccc8c(c7)CN(C7CCC(=O)NC7=O)C8=O)C6)CC5)cc4)n3)C2)C1=O (stereo partly drawn) [Compound 86] |  |  |  |  |  |  |  |  |  | 9.17 | 27 | 8.32 | 30 | % BTK Remaining [2, 10]: 56%; % BTK Remaining ([2]; oral dose 3 mg/kg, 24 h, blood, flow cytometry): 70%; AUC ([6]; 1 mg/kg IV): 0.5 µM·h; clearance ([6]; 1 mg/kg IV): 35 mL/min/kg; Vd ([6]; 1 mg/kg IV, read-out: Volume of Distribution): 7.7 L/kg; AUC ([6]; 30 mg/kg PO): 0.34 µM·h; bioavailability ([6]; 30 mg/kg PO): 2%
CN1CCN([C@H]2CCCN(c3cnc(C(N)=O)c(Nc4ccc5c(c4)CCN(CC4CN(c6ccc7c(c6)C(=O)N(C6CCC(=O)NC6=O)C7=O)C4)C5)n3)C2)C1=O (stereo partly drawn) [Compound 92] | 1.53 | 2.19 | 1.63 | 1.14 | 1.09 | 1.21 | 1.29 | 1.06 | 1.35 |  |  |  |  | 
CN1CCN([C@@H]2CCCN(c3cnc(C(N)=O)c(Nc4ccc(C5CCN(C[C@H]6CC[C@H](Nc7cccc8c7C(=O)N(C7CCC(=O)NC7=O)C8=O)CC6)CC5)cc4)n3)C2)C1=O (stereo partly drawn) [Compound 154] | 1.77 | 3.38 | 3.45 | 1.23 | 1.18 | 1.36 | 1.29 | 1.13 | 1.16 |  |  |  |  | 
CN1CCN([C@@H]2CCCN(c3cnc(C(N)=O)c(Nc4ccc(C5CCN(CCCNc6cccc7c6C(=O)N(C6CCC(=O)NC6=O)C7=O)CC5)cc4)n3)C2)C1=O (stereo partly drawn) [Compound 155] | 1.62 | 3.13 | 3.11 | 1.31 | 1.25 | 1.46 | 1.34 | 1.21 | 1.20 |  |  |  |  | 
Cn1cc(Nc2nc(N3CCC[C@@H](N4CC5(CN(C6CCN(c7ccc8c(c7)C(=O)N([C@H]7CCC(=O)NC7=O)C8=O)CC6)C5)OC4=O)C3)cnc2C(N)=O)cn1 [Compound 212] |  |  |  |  |  |  |  |  |  | 7.82 | 42 | 7.20 | 44 | % BTK Remaining [2, 10]: 78%
Nc1cccc2c1CN(C1CCC(=O)NC1=O)C2=O (stereo not drawn) [Lenalidomide, lenalidomide, reference compound] | 1.63 | 4.48 | 8.67 | 1.26 | 1.20 | 1.73 | 1.49 | 1.93 | 1.81 |  |  |  |  | IL-2 secretion compared to baseline (anti-CD3/anti-CD28 stimulation alone) [1]: induce IL-2 secretion; expression of CD25 and CD69 compared to baseline (anti-CD3/anti-CD28 stimulation alone) [3]: increase expression
Nc1cccc2c1C(=O)N(C1CCC(=O)NC1=O)C2=O (stereo not drawn) [Pomalidomide, pomalidomide, reference compound] | 1.31 | 4.80 | 5.50 | 1.03 | 1.01 | 1.39 | 1.33 | 1.63 | 1.77 |  |  |  |  | IL-2 secretion compared to baseline (anti-CD3/anti-CD28 stimulation alone) [1]: induce IL-2 secretion; expression of CD25 and CD69 compared to baseline (anti-CD3/anti-CD28 stimulation alone) [3]: increase expression
Cn1cc(Nc2nc(N3CCC[C@@H](N4CC5(CN(CC6CCN(c7ccc8c(c7)C(=O)N(C7CCC(=O)NC7=O)C8=O)CC6)C5)OC4=O)C3)cnc2C(N)=O)cn1 (stereo partly drawn) [compound 211, 5-[(3R)-3-[2-({1-[2-(2,6-dioxopiperidin-3-yl)-1,3-dioxoisoindol-5-yl]piperidin-4-yl}methyl)-6-oxo-5-oxa-2,7-diazaspiro[3.4]octan-7-yl]piperidin-1-yl]-3-[(1-methylpyrazol-4-yl)amino]pyrazine-2-carboxamide] |  |  |  |  |  |  |  |  |  | 7.93 | 30 | 6.95 | 28 | % BTK Remaining [2, 10]: 74%
